Measured values: patent publication US10328092B2, “Methods and compositions for treatment of drug addiction” (The Royal Institution for the Advancement of Learning / …, priority 2015, dated 2019)

Columns and labels:
[1] = system: TNFα mRNA; format: in vivo, mouse
Description: For tissue, total RNA from the ventral striatum was extracted and isolated by RNAqueous-4PCR total RNA isolation kit (Ambion, AM1914), according to manufacturer's instructions. For microglia and astrocyte cultures, total RNA was isolated by RNeasy kit (Qiagen, 74136). For all sample types, 0.5 μg of total RNA was used for cDNA synthesis with Quantitect Reverse Transcription Kit (Qiagen, 205313), and quantitative RT-PCR was performed with Fast SYBR-Green Master Mix (Applied Biosystems) detected by StepOne Plus RealTime PCR system (Applied Biosystems). The sequences of qPCR primers used for mRNA quantification in this study were obtained from Integrated DNA Technologies, and are as follows: mouse TNFα forward, […] (SEQ ID NO: 1) [200 nM]; mouse TNFα reverse, […] (SEQ ID NO: 2) [200 nM]; mouse GAPDH forward, […] (SEQ ID NO: 3) [300 nM]; mouse GAPDH reverse, […] (SEQ ID NO: 4) [300 nM]; rat TNFα forward, […] (SEQ ID NO: 1) [600 nM]; rat TNFα reverse, […] […] After 40 cycles, the Ct values were determined. To normalize the samples, ΔCt between TNFα and GADPH or cyclophilin Ct values was calculated. The x-fold difference in expression between the different treatments was then determined by subtraction of the ΔCt values and termed ΔΔCt. Finally, the total change was calculated as 2-ΔΔct and the relative amount compared with control samples was deducted.

[2] = system: microglia in the nucleus accumbens; assay: Microglia activation in nucleus accumbens (Iba1 immunostaining, morphology); format: in vivo, mouse
Description: Resting microglia have a ramified morphology but continuously survey the healthy brain and respond to a variety of activation signals by undergoing progressive morphological and functional changes (Kettenmann et al., 2011). Cocaine administration could activate microglia in the NAc, which could lead to the observed elevation of TNFα. Using the microglia marker Iba1, microglia was labeled in adult mice, 24 hours after a single cocaine injection, 24 hrs after 5 days of daily cocaine injections, or after 10 days of drug abstinence. Although no change was identified in the number of microglia in the NAc at any time point (FIG. 10E), Iba1 intensity was increased in microglia by 5 days of cocaine, and after a period of abstinence (FIG. 6C-D), indicating activation. […] In contrast to the change in microglia, no activation of astrocytes was observed, as judged by GFAP expression. […] This is consistent with the observation that TNFα is derived from microglia and not astrocytes during sensitization.
Mice (8-10 weeks) were perfused and their brains submerged overnight in 4% PFA, cryoprotected with 30% sucrose, and cut in 30 μm thick coronal slices using a cryostat. […] Images of the ventral striatum (nucleus accumbens core and shell) were acquired with a 40× or 60× objective and stacks of 25-30 optical sections (1 μm per section) of depth were Z-projected into a single window and analysed using ImageJ software (NIH).
The number of Iba1+ microglia were manually counted from 212×212 μm (60× objectives) or 317×317 μm (40× objectives) images. TNFα intensity was measured using the mean grey value of the entire image while Iba1 intensity measurements were obtained using a thresholded area to highlight only the microglia. Cell body area (μm^2) was measured based on Iba1 staining and using the freehand selection tool. […] The following parameters were analyzed for 40 microglia per group: total process length (sum of length of all processes), total process volume, process diameter and number of branch points and terminals. […]

[3] = system: mice; assay: Basal locomotion; format: in vivo, mouse
Description: To determine whether the low TNFα response induced by MPLA can affect the behavioural response to cocaine, it was first assessed if MPLA can alter the basal locomotion of mice. Mice were injected with 10 ug of MPLA, and tested 24 hrs later. No difference in basal locomotion was observed (n=4), compared with saline injected control mice (FIG. 2).
Locomotion was monitored in 30×30 cm plexiglass boxes by the EthoVision video-tracking system (Noldus) and performed near the end of the light phase of the light-dark cycle under dim red light. After habituating animals to handling, mice received IP injections of saline or cocaine and their activity was recorded for 15 min. […] Following 10 days without injections (withdrawal), mice receive a challenge dose of cocaine (15 mg/kg) and locomotor activity again assessed (day 17). Total distance traveled and stereotypy were evaluated from video by EthoVision. For stereotypy, the frequency of which the mouse stops moving (#pauses/min) was measured using a threshold start velocity of 2.00/second and a threshold stop velocity of 0 cm/s. The number of turns per minute (# turns/min) was measured by calculating the frequency for which the path of the mouse turns over a minimum distance of 3.00 cm. Velocity was assessed as the mean distance traveled (cm) over time (s).

[4] = Sickness behavior in vivo

Molecule	increase of TNFα mRNA in microglia cells ([1]; 5 daily injections of cocaine, striatum CD11b+ fraction)	decrease in TNFα mRNA in non-microglial cells ([1]; five daily cocaine treatments, other striatal cell types)	microglia cell body area ([2]; 5 d cocaine)	decrease of total length of microglia processes ([2]; after 5 days cocaine)	basal locomotion, distance ([3]; 24 hours after IP injection of 10 μg MPLA)	basal locomotion vs saline injected mice ([3]; 24 hours after i.p. injection of 10 μg MPLA)	Iba1 intensity in nucleus accumbens ([2]; 24 hours after a single MPLA injection 10 μg, after 10 day withdrawal from cocaine)	sickness behavior [4]
COC(=O)[C@H]1[C@@H](OC(=O)c2ccccc2)C[C@@H]2CC[C@H]1N2C [cocaine]	~2.5 fold	3.26±0.21 fold	37.2±0.9 μm^2	20%	–	–	–	–
monophosphoryl lipid A [MPLA]	–	–	–	–	5415±378 cm	No significant differences	significantly increased	without inducing sickness behavior
